# Data: patent publication US20250345446A1 (Draupnir Bio ApS, priority 2022, published 2025)
# Where two headings read alike, the source gives them in different places. *: point of attachment. Biotin = O=C1N[C@H]2[C@H](CS[C@H]2CCCCC(=O)*)N1
# B1: Biotin-GGSGGGGSGRQLL-OH (peptide)
# peptide: Biotin-GGSGGGGSGRQLL-OH
# SMILES: CC(C)C[C@H](NC(=O)[C@H](CC(C)C)NC(=O)[C@H](CCC(N)=O)NC(=O)[C@H](CCCNC(=N)N)NC(=O)CNC(=O)[C@H](CO)NC(=O)CNC(=O)CNC(=O)CNC(=O)CNC(=O)[C@H](CO)NC(=O)CNC(=O)CNC(=O)CCCC[C@@H]1SC[C@@H]2NC(=O)N[C@@H]21)C(=O)O
# B2: Biotin-GGSGGGGSGFQLL-OH (peptide)
# peptide: Biotin-GGSGGGGSGFQLL-OH
# SMILES: CC(C)C[C@H](NC(=O)[C@H](CC(C)C)NC(=O)[C@H](CCC(N)=O)NC(=O)[C@H](Cc1ccccc1)NC(=O)CNC(=O)[C@H](CO)NC(=O)CNC(=O)CNC(=O)CNC(=O)CNC(=O)[C@H](CO)NC(=O)CNC(=O)CNC(=O)CCCC[C@@H]1SC[C@@H]2NC(=O)N[C@@H]21)C(=O)O
# B3: Biotin-GGSGGGGSGGGGSGGFQLL-OH (peptide)
# peptide: Biotin-GGSGGGGSGGGGSGGFQLL-OH
# SMILES: CC(C)C[C@H](NC(=O)[C@H](CC(C)C)NC(=O)[C@H](CCC(N)=O)NC(=O)[C@H](Cc1ccccc1)NC(=O)CNC(=O)CNC(=O)[C@H](CO)NC(=O)CNC(=O)CNC(=O)CNC(=O)CNC(=O)[C@H](CO)NC(=O)CNC(=O)CNC(=O)CNC(=O)CNC(=O)[C@H](CO)NC(=O)CNC(=O)CNC(=O)CCCC[C@@H]1SC[C@@H]2NC(=O)N[C@@H]21)C(=O)O
# B4: Biotin-GGSGGGGSGGGGSRQLL-OH (peptide)
# peptide: Biotin-GGSGGGGSGGGGSRQLL-OH
# SMILES: CC(C)C[C@H](NC(=O)[C@H](CC(C)C)NC(=O)[C@H](CCC(N)=O)NC(=O)[C@H](CCCNC(=N)N)NC(=O)[C@H](CO)NC(=O)CNC(=O)CNC(=O)CNC(=O)CNC(=O)[C@H](CO)NC(=O)CNC(=O)CNC(=O)CNC(=O)CNC(=O)[C@H](CO)NC(=O)CNC(=O)CNC(=O)CCCC[C@@H]1SC[C@@H]2NC(=O)N[C@@H]21)C(=O)O
# B5: Biotin-GGSGGGGSGGGGSFQLL-OH (peptide)
# peptide: Biotin-GGSGGGGSGGGGSFQLL-OH
# SMILES: CC(C)C[C@H](NC(=O)[C@H](CC(C)C)NC(=O)[C@H](CCC(N)=O)NC(=O)[C@H](Cc1ccccc1)NC(=O)[C@H](CO)NC(=O)CNC(=O)CNC(=O)CNC(=O)CNC(=O)[C@H](CO)NC(=O)CNC(=O)CNC(=O)CNC(=O)CNC(=O)[C@H](CO)NC(=O)CNC(=O)CNC(=O)CCCC[C@@H]1SC[C@@H]2NC(=O)N[C@@H]21)C(=O)O
# Columns and labels:
# [1] = test system: HEK293 cells expressing full length sortilin receptor; assay: Cellular uptake of AlexaFluor488-anti-DNP antibody; assay type: cell-based; details: for AUC score, target internalization: Table 7, AlexaFluor488-anti-DNP antibody (100 nM), 3 h, DNP warhead compounds; for cell associated FI signal, response to concentration series (in words): 3 h incubation, 1.9 nM to 2 μM, AlexaFluor488-anti-DNP antibody 100 nM
# Excerpt: In this example, the small molecule degraders consist of a sortilin binder linked to warhead DNP to target anti-DNP antibodies (BF001 to BF016)
# Cellular uptake of AlexaFluor488-anti-DNP antibody (Thermo Fisher) was investigated in HEK293 cells expressing full length sortilin receptor in a methodology analogous to example 3.
# [2] = biological target: T1, soluble ectodomain of sortilin-6his (Homo sapiens, UniProt Q99523, V650M); assay: MST binding to soluble ectodomain of sortilin-6his
# T1 construct: the soluble ectodomain of sortilin-6his is measured by microscale thermophoresis (MST)
# [3] = test system: HEK293 cells expressing full length sortilin receptor; assay: Cellular uptake of NA650 in HEK293/sortilin cells; assay type: cell-based; details: Table 6; NA650 (100 nM), 3 h, biotin warhead compounds
# Method: Cellular uptake of NA650 was investigated in HEK293 cells expressing full length sortilin receptor (Petersen et. al.). Cells were seeded in poly-L-lysine coated 96-well plates (Perkin Elmer) (40K/well) in 50 μL culture medium (DMEM (Lonza)+10% FBS (SigmaAldrich)+1% penicillin-streptomycin (SigmaAldrich)+1% GlutaMAX (Gibco)+100 μg/mL Zeocin (Invitrogen)) and incubated overnight in cell incubator (37° C., humidified, 5% CO2).
# Culture medium was replaced with assay medium (DMEM (Lonza)+10% fetal bovine serum (SigmaAldrich)+1% penicillin-streptomycin (SigmaAldrich)+1% GlutaMAX (Gibco)) containing NA650 (Invitrogen) (100 nM) (Thermo Fischer) and peptidic bifunctional compounds (9.8 nM to 10 μM). Cells were incubated for 3 h in cell incubator before they were washed in dPBS (Bionordika). The DyLight650 signal in the cell layer was detected using a fluorescence plate reader (BMG Labtech Clariostar).
# Cellular uptake of NA650 was investigated in HEK293 cells expressing full length sortilin receptor using a methodology analogous to example 3.
# [4] = biological target: T2, Sortilin-6His (Homo sapiens (Human), UniProt Q99523 78-755); assay: TR-FRET (HTRF) ternary complex streptavidin-d2 / biotin-peptide / sortilin-6His; AUC score: + <5000, ++ >5000
# T2 construct: In MST it was labelled non-covalently with RED-tris-NTA; also called soluble ectodomain of sortilin-6his; fluorescent sortilin-6his
# [5] = biological target: T2, Sortilin-6His; assay: MST on labelled sortilin-6his ectodomain; KD score: ++ <100 nM, + 100-2000 nM
# [6] = Table 4, small molecule bifunctional compounds, MST, read-out: KD score, binding to sortilin (Kd)
# T1 sequence (Q99523 with tags, fused parts or gaps V650M): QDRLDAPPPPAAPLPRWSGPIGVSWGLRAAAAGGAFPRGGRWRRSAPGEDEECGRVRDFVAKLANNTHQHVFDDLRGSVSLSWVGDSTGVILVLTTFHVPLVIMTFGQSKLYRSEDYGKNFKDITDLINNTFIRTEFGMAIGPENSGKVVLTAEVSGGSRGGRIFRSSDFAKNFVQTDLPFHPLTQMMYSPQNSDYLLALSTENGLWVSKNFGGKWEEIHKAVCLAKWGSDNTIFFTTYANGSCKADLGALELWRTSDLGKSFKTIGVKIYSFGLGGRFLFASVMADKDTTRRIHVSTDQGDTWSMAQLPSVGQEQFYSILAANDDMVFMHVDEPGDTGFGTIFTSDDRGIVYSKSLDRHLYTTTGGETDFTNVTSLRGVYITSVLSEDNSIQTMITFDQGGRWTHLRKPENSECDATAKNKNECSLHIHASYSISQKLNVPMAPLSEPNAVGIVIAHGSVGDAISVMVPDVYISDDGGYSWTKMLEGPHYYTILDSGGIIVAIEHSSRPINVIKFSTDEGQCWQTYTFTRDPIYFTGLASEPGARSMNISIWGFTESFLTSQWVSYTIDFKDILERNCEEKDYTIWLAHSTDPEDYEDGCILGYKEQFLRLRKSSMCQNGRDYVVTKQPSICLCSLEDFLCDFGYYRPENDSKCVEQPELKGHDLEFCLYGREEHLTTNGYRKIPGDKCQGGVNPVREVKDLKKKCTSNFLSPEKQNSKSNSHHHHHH
# T2 sequence (Q99523 78-755 V650M limits assumed): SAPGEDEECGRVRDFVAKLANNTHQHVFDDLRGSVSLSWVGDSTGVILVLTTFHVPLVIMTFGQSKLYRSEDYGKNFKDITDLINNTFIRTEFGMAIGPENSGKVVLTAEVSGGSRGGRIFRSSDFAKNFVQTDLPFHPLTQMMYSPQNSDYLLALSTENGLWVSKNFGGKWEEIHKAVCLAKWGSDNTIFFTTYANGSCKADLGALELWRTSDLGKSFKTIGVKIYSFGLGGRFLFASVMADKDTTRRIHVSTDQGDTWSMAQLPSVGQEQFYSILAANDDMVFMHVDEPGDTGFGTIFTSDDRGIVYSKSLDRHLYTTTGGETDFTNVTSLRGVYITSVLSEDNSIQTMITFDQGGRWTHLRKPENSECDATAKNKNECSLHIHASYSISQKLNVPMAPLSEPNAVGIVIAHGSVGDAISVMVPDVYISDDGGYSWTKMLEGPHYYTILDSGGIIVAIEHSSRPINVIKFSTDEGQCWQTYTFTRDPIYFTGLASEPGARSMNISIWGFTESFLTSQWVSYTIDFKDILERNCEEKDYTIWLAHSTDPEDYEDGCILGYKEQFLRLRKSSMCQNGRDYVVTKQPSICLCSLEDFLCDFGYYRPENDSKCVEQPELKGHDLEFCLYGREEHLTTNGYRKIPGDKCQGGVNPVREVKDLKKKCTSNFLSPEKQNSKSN
Molecule,"AUC score, target internalization [1]",Kd [2],AUC of TR-FRET (HTRF ratio vs compound concentration) for ternary complex formation [4],KD [5],also measured
"CC(C)(C)CC[C@H](NC(=O)c1ccc(Oc2cccc(OCCOCCOCCOCCOCCOCCNc3ccc([N+](=O)[O-])cc3[N+](=O)[O-])c2)nc1)C(=O)O [BF004, (2S)-2-[[6-[3-[2-[2-[2-[2-[2-[2-(2,4-dinitroanilino)ethoxy]ethoxy]ethoxy]ethoxy]ethoxy]ethoxy]phenoxy]pyridine-3-carbonyl]amino]-5,5-dimethyl-hexanoic acid]",+ (AUC < 10.000),1 to 10 nM,,,
"CC(C)(C)CC[C@H](NC(=O)c1ccc(Oc2cccc(C(=O)NCCOCCOCCOCCOCCOCCOCCOCCNc3ccc([N+](=O)[O-])cc3[N+](=O)[O-])c2)nc1)C(=O)O [BF006, (2S)-2-[[6-[3-[2-[2-[2-[2-[2-[2-[2-[2-(2,4-dinitroanilino)ethoxy]ethoxy]ethoxy]ethoxy]ethoxy]ethoxy]ethoxy]ethylcarbamoyl]phenoxy]pyridine-3-carbonyl]amino]-5,5-dimethyl-hexanoic acid]",+ (AUC < 10.000),1 to 10 nM,,,"cell associated FI signal, response to concentration series (in words) [1]: bell-shaped response"
"CC(C)(C)CC[C@H](NC(=O)c1ccc(Oc2cccc(C(=O)NCCOCCOCCOCCOCCOCCOCCNc3ccc([N+](=O)[O-])cc3[N+](=O)[O-])c2)nc1)C(=O)O [BF008, (2S)-2-[[6-[3-[2-[2-[2-[2-[2-[2-[2-(2,4-dinitroanilino)ethoxy]ethoxy]ethoxy]ethoxy]ethoxy]ethoxy]ethylcarbamoyl]phenoxy]pyridine-3-carbonyl]amino]-5,5-dimethyl-hexanoic acid]",+ (AUC < 10.000),1 to 10 nM,,,
"CC(C)(C)CC[C@H](NC(=O)c1ccc(Oc2cccc3c(C(=O)NCCCNC(=O)CCOCCOCCOCCOCCNc4ccc([N+](=O)[O-])cc4[N+](=O)[O-])cccc23)nc1)C(=O)O [BF010, (2S)-2-[[6-[[5-[3-[3-[2-[2-[2-[2-(2,4-dinitroanilino)ethoxy]ethoxy]ethoxy]ethoxy]propanoylamino]propylcarbamoyl]-1-naphthyl]oxy]pyridine-3-carbonyl]amino]-5,5-dimethyl-hexanoic acid]",++ (AUC > 10.000),1 to 10 nM,,,
"CC(C)(C)CC[C@H](NC(=O)c1ccc(Oc2cccc(C(=O)NCCOCCOCCOCCOCCOCCNc3ccc([N+](=O)[O-])cc3[N+](=O)[O-])c2)nc1)C(=O)O [BF011, (2S)-2-[[6-[3-[2-[2-[2-[2-[2-[2-(2,4-dinitroanilino)ethoxy]ethoxy]ethoxy]ethoxy]ethoxy]ethylcarbamoyl]phenoxy]pyridine-3-carbonyl]amino]-5,5-dimethyl-hexanoic acid]",+ (AUC < 10.000),,,,"cell associated FI signal, response to concentration series (in words) [1]: bell-shaped response"
"CC(C)(C)CC[C@H](NC(=O)c1ccc(Oc2cccc(OCCOCCOCCOCCOCCOCCOCCNc3ccc([N+](=O)[O-])cc3[N+](=O)[O-])c2)nc1)C(=O)O [BF014, (2S)-2-[[6-[3-[2-[2-[2-[2-[2-[2-[2-(2,4-dinitroanilino)ethoxy]ethoxy]ethoxy]ethoxy]ethoxy]ethoxy]ethoxy]phenoxy]pyridine-3-carbonyl]amino]-5,5-dimethyl-hexanoic acid]",++ (AUC > 10.000),10 to 250 nM,,,
"CC(C)(C)CC[C@H](NC(=O)c1ccc(Oc2cccc(C(=O)NCCOCCOCCOCCOCCOCCOCCOCCOCCNC(=O)CCCC[C@@H]3SC[C@@H]4NC(=O)N[C@@H]43)c2)nc1)C(=O)O [BF018, (2S)-2-[[6-[3-[2-[2-[2-[2-[2-[2-[2-[2-[2-[5-[(3aS,4S,6aR)-2-oxo-1,3,3a,4,6,6a-hexahydrothieno[3,4-d]imidazol-4-yl]pentanoylamino]ethoxy]ethoxy]ethoxy]ethoxy]ethoxy]ethoxy]ethoxy]ethoxy]ethylcarbamoyl]phenoxy]pyridine-3-carbonyl]amino]-5,5-dimethyl-hexanoic acid]",,,,,"AUC score, target internalization [3]: ++ (AUC > 100); Kd [2, 6]: 1 to 10 nM"
"CC(C)(C)CC[C@H](NC(=O)c1ccc(Oc2cccc(OCCOCCOCCNC(=O)CCCC[C@@H]3SC[C@@H]4NC(=O)N[C@@H]43)c2)nc1)C(=O)O [BF022, (S)-5,5-dimethyl-2-(6-(3-(2-(2-(2-(5-((3aS,4S,6aR)-2-oxohexahydro-1H-thieno[3,4-d]imidazol-4-yl)pentanamido)ethoxy)ethoxy)ethoxy)phenoxy)nicotinamido) hexanoic acid]",,,,,"AUC score, target internalization [3]: + (AUC < 100); Kd [2, 6]: 10 to 250 nM"
CC(C)(C)CC[C@H](NC(=O)c1ccc(Oc2cccc3cc(C(=O)NCCCNC(=O)CCCC[C@@H]4SC[C@@H]5NC(=O)N[C@@H]54)ccc23)nc1)C(=O)O [BF024],,,,,"AUC score, target internalization [3]: + (AUC < 100); Kd [2, 6]: 10 to 250 nM"
"CC(C)(C)CC[C@H](NC(=O)c1ccc(Oc2cccc3c(C(=O)NCCCNC(=O)CCOCCOCCOCCOCCOCCNC(=O)CCCC[C@@H]4SC[C@@H]5NC(=O)N[C@@H]54)cccc23)nc1)C(=O)O [BF028, (2S)-2-[[6-[[5-[3-[3-[2-[2-[2-[2-[2-[5-[(3aS,4S,6aR)-2-oxo-1,3,3a,4,6,6a-hexahydrothieno[3,4-d]imidazol-4-yl]pentanoylamino]ethoxy]ethoxy]ethoxy]ethoxy]ethoxy]propanoylamino]propylcarbamoyl]-1-naphthyl]oxy]pyridine-3-carbonyl]amino]-5,5-dimethyl-hexanoic acid]",,,,,"AUC score, target internalization [3]: ++ (AUC > 100); Kd [2, 6]: 10 to 250 nM"
B1,,,< 5000 auc,< 100 nM,
B2,,,< 5000 auc,< 100 nM,
B3,,,> 5000 auc,100 to 2000 nM,
B4,,,< 5000 auc,< 100 nM,
B5,,,> 5000 auc,100 to 2000 nM,
